Biological target: T1, human Bradykinin B1 receptor (Homo sapiens, UniProt P46663)
T1 construct: host or cells: CHO-K1
T1 sequence (P46663 1-353): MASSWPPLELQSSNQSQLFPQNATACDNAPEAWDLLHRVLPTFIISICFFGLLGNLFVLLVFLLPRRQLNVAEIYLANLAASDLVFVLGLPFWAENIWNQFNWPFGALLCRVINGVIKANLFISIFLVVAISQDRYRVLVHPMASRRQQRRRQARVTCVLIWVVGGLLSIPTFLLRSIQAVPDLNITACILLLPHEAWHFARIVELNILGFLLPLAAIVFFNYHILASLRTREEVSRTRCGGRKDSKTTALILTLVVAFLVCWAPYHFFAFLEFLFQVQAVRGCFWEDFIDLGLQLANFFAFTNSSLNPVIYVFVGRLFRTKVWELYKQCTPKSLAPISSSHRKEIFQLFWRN
Experiment: Calcium flux Assay (FLIPR) with cells expressing human Bradykinin B1 receptor (hB1)
Format: cell-based
Settings: absence of 0.1% BSA in assay buffer; CHO-K1 cell line expressing human B1 receptor; agonist Lys-(Des-Arg)-Bradykinin; read-out: hB1 free IC50
Procedure: The potency to inhibit the Bradykinin B1 receptor was determined for the compound examples of this invention in a cell-based fluorescent calcium-mobilisation assay. The assay measures the ability of compound examples to inhibit Bradykinin B1 receptor agonist-induced increase of intracellular free Ca^2+ in the cell line expressing Bradykinin B1 receptor. Specifically, calcium indicator-loaded cells are pre-incubated in the absence or presence of different concentrations of compound examples followed by the stimulation with a selective Bradykinin B1 receptor agonist peptide. The change of the intracellular Ca^2+ concentration is monitored with a fluorescent plate reader FLIPR^TETRA®
Calcium flux Assays (FLIPR) with cells expressing human Bradykinin B1 receptor (hB1) Calcium flux Assay (FLIPR) with recombinant cells for Bradykinin B1 receptor antagonist, either in the presence (hB1 IC50) or absence (hB1 free IC50) of 0.1% Bovine Serum Albumin (BSA) in assay buffer.
CHO—K1 cell line expressing human B1 receptor was purchased from Euroscreen (Gosselies, Belgium, with reference name hB1-D1). The cells were grown in Nutrient Mixture Ham's F12 (Sigma) containing 10% Foetal bovine serum (Sigma) and 400 μg/mL G418 (Sigma), 5 μg/mL puromycin (Sigma).
For the calcium flux assay, 80% confluent cells were detached from the culture vessels with Versene (Gibco), and seeded into 384-well plates (Cell binding Surface; Corning, N.Y.; #3683) at a density of 15,000 cells per well. Cells were seeded in a volume of 50 μL in medium without antibiotics and incubated overnight in a humidified atmosphere with 5% CO2 at 37° C. […] The calcium indicator loaded cells were incubated at 37° C. for 2 hrs. Extracellular dye was then removed and each well was filled with 45 μL of assay buffer. Cell plates were kept in dark until used. Example compounds were assayed at 8 concentrations in triplicate. Serial 10-fold dilutions in 100% DMSO were made at a 100-times higher concentration than the final concentration, and then diluted 1:10 in assay buffer. 5 μL of each diluted compound was added to the well of cell plates (yielding final concentration with 1% DMSO), and incubated for 30 min at 28° C. before the addition of B1 receptor agonist on the FLIPR instrument.
Agonist plates contained the agonist Lys-(Des-Arg)-Bradykinin (Bachem, Brackley) at 3.5×EC90 in assay buffer with 1% DMSO. The addition of agonist 20 μl per well to the assay plate was carried out on the FLIPR instrument while continuously monitoring Ca^2+-dependent fluorescence at 538 nm. A peptide antagonist Lys-(Des-Arg-Leu)-Bradykinin (Bachem, Brackley) at 20 μM was used to determine the full inhibition as control.
Peak fluorescence was used to determine the response to agonist obtained at each concentration of example compound by the following equation:
% Response=100*(RFU(example compound)−RFU(control))/(RFU(DMSO)−RFU(control)) • RFU means relative fluorescence units. • Control means full inhibition by the peptide antagonist Lys-(Des-Arg-Leu)-Bradykinin at 20
The response values were plotted against the logarithm of the example compound concentrations. The example compounds were tested in triplicates per plate and mean values were plotted in Excel XLfit to determine IC50 values, percentage of maximal inhibition and the Hill slopes.
IC50 values of example compounds in Calcium flux Assay (FLIPR) as shown in table 1 were determined according to the protocol described above in the absence of 0.1% BSA in assay buffer.

Structure (SMILES)	IC50 [nM]
CCC(C)OC(=O)c1ccc(NC(=O)C2(c3cccc(Cl)c3)CC2)cc1-c1nnn[nH]1 (racemic) [Example 3, sec-Butyl 4-({[1-(3-chlorophenyl)cyclopropyl]carbonyl}amino)-2-(1H-tetrazol-5-yl)benzoate]	10
CCC(C)OC(=O)c1ccc(NC(=O)C2(c3ccc(F)c(F)c3)CC2)cc1-c1nnn[nH]1 (racemic) [Example 8, sec-Butyl 4-({[1-(3,4-difluorophenyl)cyclopropyl]carbonyl}amino)-2-(1H-tetrazol-5-yl)benzoate]	21
CCC(C)OC(=O)c1ccc(NC(=O)C2(c3ccc(C)cc3F)CC2)cc1-c1nnn[nH]1 (racemic) [Example 9, sec-Butyl 4-({[1-(2-fluoro-4-methylphenyl)cycloporopyl]carbonyl}amino)-2-(1H-tetrazol-5-yl)benzoate]	17
CCC(C)OC(=O)c1ccc(NC(=O)C2(c3ccc(C(F)(F)F)cc3F)CC2)cc1-c1nnn[nH]1 (racemic) [Example 10, sec-Butyl 4-[({1-[2-fluoro-4-(trifluoromethyl)phenyl]cyclopropyl}carbonyl)amino]-2-(1H-tetrazol-5-yl)benzoate]	4
CCC(C)OC(=O)c1ccc(NC(=O)C2(c3ccc(OC(F)(F)F)cc3F)CC2)cc1-c1nnn[nH]1 (racemic) [Example 11, sec-Butyl 4-[({1-[2-fluoro-4-(trifluoromethoxy)phenyl]cyclopropyl}carbonyl)amino]-2-(1H-tetrazol-5-yl)benzoate]	3
Cc1cccc([C@@H]2C[C@H]2C(=O)Nc2ccc(C(=O)OC3CCCC3)c(-c3nnn[nH]3)c2)c1 (racemic) [Example 13, Cyclopentyl-4-({[2-(3-methylphenyl)cyclopropyl]carbonyl}amino)-2-(1H-tetrazol-5-yl)benzoate]	47
CCOC(=O)c1ccc(NC(=O)C2(c3cccc(Cl)c3)CC2)cc1-c1nnn[nH]1 [Example 1, Ethyl 4-({[1-(3-chlorophenyl)cyclopropyl]carbonyl}amino)-2-(1H-tetrazol-5-yl)benzoate]	136
O=C(OC1CCCC1)c1ccc(NC(=O)C2(c3cccc(Cl)c3)CC2)cc1-c1nnn[nH]1 [Example 2, Cyclopentyl 4-({[1-(3-chlorophenyl)cyclopropyl]carbonyl}amino)-2-(1H-tetrazol-5-yl)benzoate]	21
O=C(OC1CCCC1)c1ccc(NC(=O)C2(c3ccc(F)c(F)c3)CC2)cc1-c1nnn[nH]1 [Example 4, Cyclopentyl 4-({[1-(3,4-difluorophenyl)cyclopropyl]carbonyl}amino)-2-(1H-tetrazol-5-yl)benzoate]	59
Cc1ccc(C2(C(=O)Nc3ccc(C(=O)OC4CCCC4)c(-c4nnn[nH]4)c3)CC2)c(F)c1 [Example 5, Cyclopentyl 4-({[1-(2-fluoro-4-methylphenyl)cyclopropyl]carbonyl}amino)-2-(1H-tetrazol-5-yl)benzoate]	25
O=C(OC1CCCC1)c1ccc(NC(=O)C2(c3ccc(C(F)(F)F)cc3F)CC2)cc1-c1nnn[nH]1 [Example 6, Cyclopentyl 4-[({1-[2-fluoro-4-(trifluoromethyl)phenyl]cyclopropyl}carbonyl)amino]-2-(1H-tetrazol-5-yl)benzoate]	9
O=C(OC1CCCC1)c1ccc(NC(=O)C2(c3ccc(OC(F)(F)F)cc3F)CC2)cc1-c1nnn[nH]1 [Example 7, Cyclopentyl 4-[({1-[2-fluoro-4-(trifluoromethoxy)phenyl]cyclopropyl}carbonyl)amino]-2-(1H-tetrazol-5-yl)benzoate]	5
CN(CC1CCCCC1)C(=O)c1ccc(NC(=O)C2(c3ccc(C(F)(F)F)cc3F)CC2)cc1-c1nnn[nH]1 [Example 12, N-(cyclohexylmethyl)-4-[({1-[2-fluoro-4-(trifluoromethyl)phenyl]cyclopropyl}carbonyl)amino]-N-methyl-2-(1H-tetrazol-5-yl)benzamide]	412
CC1(OC(=O)c2ccc(NC(=O)C3(c4ccc(C(F)(F)F)cc4F)CC3)cc2-c2nnn[nH]2)CCCC1 [Example 14, 1-Methylcyclopentyl 4-[({1-[2-fluoro-4-(trifluoromethyl)phenyl]cyclopropyl}-carbonyl)amino]-2-(1H-tetrazol-5-yl)benzoate]	999
CCC(C)(C)OC(=O)c1ccc(NC(=O)C2(c3ccc(C(F)(F)F)cc3F)CC2)cc1-c1nnn[nH]1 [Example 15, 2-Methylbutan-2-yl 4-[({1-[2-fluoro-4-(trifluoromethyl)phenyl]cyclopropyl}carbonyl)amino]-2-(1H-tetrazol-5-yl)benzoate]	5220
O=C(OC1CCCCC1)c1ccc(NC(=O)C2(c3ccc(C(F)(F)F)cc3F)CC2)cc1-c1nnn[nH]1 [Example 16, Cyclohexyl 4-[({1-[2-fluoro-4-(trifluoromethyl)phenyl]cyclopropyl}carbonyl)amino]-2-(1H-tetrazol-5-yl)benzoate]	5

Continued, values first:

IC50 [nM]	Structure (SMILES)
7	O=C(OC1CCOC1)c1ccc(NC(=O)C2(c3ccc(C(F)(F)F)cc3F)CC2)cc1-c1nnn[nH]1 (racemic) [Example 18, Tetrahydrofuran-3-yl 4-[({1-[2-fluoro-4-(trifluoromethyl)phenyl]cyclopropyl}carbonyl)amino]-2-(1H-tetrazol-5-yl)benzoate]
9	COC(C)COC(=O)c1ccc(NC(=O)C2(c3ccc(C(F)(F)F)cc3F)CC2)cc1-c1nnn[nH]1 (racemic) [Example 31, 2-Methoxypropyl 4-[({1-[2-fluoro-4-(trifluoromethyl)phenyl]cyclopropyl}carbonyl)amino]-2-(1H-tetrazol-5-yl)benzoate]
13	COCC(C)OC(=O)c1ccc(NC(=O)C2(c3ccc(C(F)(F)F)cc3F)CC2)cc1-c1nnn[nH]1 (racemic) [Example 32, 1-Methoxypropan-2-yl 4-[({1-[2-fluoro-4-(trifluoromethyl)phenyl]cyclopropyl}carbonyl)amino]-2-(1H-tetrazol-5-yl)benzoate]
341	COC1CCCN(C(=O)c2ccc(NC(=O)C3(c4ccc(C(F)(F)F)cc4F)CC3)cc2-c2nnn[nH]2)C1 (racemic) [Example 35, 1-[2-Fluoro-4-(trifluoromethyl)phenyl]-N-{4-[(3-methoxypiperidin-1-yl)carbonyl]-3-(1H-tetrazol-5-yl)phenyl}cyclopropanecarboxamide]
1850	CCC(C)N(C)C(=O)c1ccc(NC(=O)C2(c3ccc(C(F)(F)F)cc3F)CC2)cc1-c1nnn[nH]1 (single isomer, unassigned) [Example 58, N-sec-butyl-4-[({1-[2-fluoro-4-(trifluoromethyl)phenyl]cyclopropyl}carbonyl)-amino]-N-methyl-2-(1H-tetrazol-5-yl)benzamide]
17	COCCOC(=O)c1ccc(NC(=O)C2(c3ccc(C(F)(F)F)cc3F)CC2)cc1-c1nnn[nH]1 [Example 17, 2-Methoxyethyl 4-[({1-[2-fluoro-4-(trifluoromethyl)phenyl]cyclopropyl}-carbonyl)amino]-2-(1H-tetrazol-5-yl)benzoate]
13	O=C(O[C@H]1CCOC1)c1ccc(NC(=O)C2(c3ccc(C(F)(F)F)cc3F)CC2)cc1-c1nnn[nH]1 [Example 19, (3S)-Tetrahydrofuran-3-yl 4-[({1-[2-fluoro-4-(trifluoromethyl)phenyl]cyclopropyl}carbonyl)amino]-2-(1H-tetrazol-5-yl)benzoate]
